Experimental data taken from patent publication US20210179598A1, “SELECTIVE JAK2 INHIBITOR AND APPLICATION THEREOF” (EAST CHINA UNIVERSITY OF SCIENCE AND TECHNOLOGY, priority 2018, published 2021).

How the values were obtained:
H3122 cells = assay: CCK-8 cell proliferation detection, H3122 cells; type: cell-based; details: Homo sapiens, Table 2, CCK-8, 72 hrs
Source text: (§1) WST-8 (chemical name: 2-(2-methoxy-4-nitrophenyl)-3-(4-nitrophenyl)-5-(2,4-disulfo benzene)-2H-tetrazolium monosodium), which is reduced to a highly water-soluble yellow formazan product (Formazan dye) by the dehydrogenase in cells under the action of the electron carrier dimethyl 1-methoxy-5-methylphenazinium sulfate (1-Methoxy PMS). The amount of the produced formazan is proportional to the number of living cells. Therefore, the survival rate of cells can be calculated indirectly by measuring the absorbance at 450 nm. The half inhibition rate of the compound on the proliferation of H3122, SET2, HEL cells can be determined by the CCK-8 method.
(§2) RPIM medium containing 10% FBS was used to culture cells (100 μL per well), and 3500 cells were inoculated into a 96-well plate, and placed in a 37° C., 5% CO2 incubator for 24 h, until 50%-70% of the cell confluence was achieved. Drugs with different concentration gradients were added respectively, and incubated for another 72 hrs. […] And finally the absorption value of each well was measured at 450 nm.
(§3) NOTE: HEL, SET-2, H3122 cells were purchased from ATCC (American type culture collection), Z′-LYTETM kinase assay platform was purchased from Invitrogen, HTRF KinEASETM-TK was purchased from Cisbio, and Cell Counting Kit-8 was purchased from Beyotime.

ALK = ALK (Homo sapiens, UniProt Q9UM73); assay: ALK kinase IC50 test (HTRF); type: biochemical; details: Table 2
Source text: According to HTRF method, the peptide substrate was labeled with a biotin, which can specifically bind to XL665-labeled streptavidin. When the kinase adds a phosphate group to the polypeptide substrate in the first step, its Eu-labeled specific phosphorylation antibody can recognize and bind to it. In this way, in the second step of detection, a complex of XL665-labeled streptavidin, phosphorylated peptide substrate and Eu-labeled phosphorylation antibody can be formed. Since the distance between XL665 and Eu is short, FRET can be formed. On the other hand, Eu has a relatively long fluorescence half-life and can be applied to time-resolved fluorescence detection.
10 μL of reaction system, 4 μL test compound, 2 μL kinase, 2 μL biotin-labeled substrate and 2 μL ATP, was added into a 384-well plate, shaken for 30 s, and incubated at room temperature for 1 hour. 5 μL of Eu-labeled phosphorylation site-specific antibody and 5 μL of XL665-labeled streptavidin were added. The reaction system was shaken for 30 s, and incubated at room temperature for 1 hour. A microplate reader was used to detect the fluorescence signal. The inhibition rates of the compounds under 8 concentration gradients were determined, and the IC50 value of each compound was calculated by fitting curve with Origin 8.0. […] Each experiment was performed in triplicate.
as §3

JAK2 = JAK2 (Homo sapiens, UniProt O60674); assay: JAK2 kinase activity test at molecular level (Z'-LYTE FRET); type: biochemical; details: Table 2; read-out: JAK2 IC50
Protocol: JAK2 can catalyze the transfer of a phosphate group of adenosine triphosphate (ATP) to a polypeptide substrate, and the polypeptide substrate is labeled with two fluorescent groups, coumarin and fluorescein. […] Therefore, the inhibition rates of different compounds can be calculated by measuring the ratio of enzyme-catalyzed substrate phosphorylation percentages.
10 μL reaction system, 2.5 μL test compound, 5 μL kinase/peptide substrate mixture and 2.5 μL ATP solution were added into a 384-well plate, shaken for 30 s, and incubated at room temperature for 1 hour. 5 μL of proteolytic enzyme and 15 μL of the reaction system were added and shaken for 30 s and incubated at room temperature for 1 h. 5 μL of stop reagent was added, and the reaction system with a total volume of 20 μL was shaken for 30 seconds. A microplate reader was used to detect the fluorescence signal. […] The inhibition rates of the compound at 7 concentration gradients were determined, and the IC50 value for each compound was calculated by fitting curve with Origin 8.0.
as §3

HEL (JAK2 V617F) cells = assay: CCK-8 cell proliferation detection, HEL cells; type: cell-based; details: Homo sapiens, Table 2, CCK-8, 72 hrs
Source text: as §1, §2, §3

SET 2 (JAK2 V617F) cells = assay: CCK-8 cell proliferation detection, SET2 cells; type: cell-based; details: Homo sapiens, Table 2, CCK-8, 72 hrs
Source text: as §1, §2, §3

Chain of JAK2 (O60674 whole entry): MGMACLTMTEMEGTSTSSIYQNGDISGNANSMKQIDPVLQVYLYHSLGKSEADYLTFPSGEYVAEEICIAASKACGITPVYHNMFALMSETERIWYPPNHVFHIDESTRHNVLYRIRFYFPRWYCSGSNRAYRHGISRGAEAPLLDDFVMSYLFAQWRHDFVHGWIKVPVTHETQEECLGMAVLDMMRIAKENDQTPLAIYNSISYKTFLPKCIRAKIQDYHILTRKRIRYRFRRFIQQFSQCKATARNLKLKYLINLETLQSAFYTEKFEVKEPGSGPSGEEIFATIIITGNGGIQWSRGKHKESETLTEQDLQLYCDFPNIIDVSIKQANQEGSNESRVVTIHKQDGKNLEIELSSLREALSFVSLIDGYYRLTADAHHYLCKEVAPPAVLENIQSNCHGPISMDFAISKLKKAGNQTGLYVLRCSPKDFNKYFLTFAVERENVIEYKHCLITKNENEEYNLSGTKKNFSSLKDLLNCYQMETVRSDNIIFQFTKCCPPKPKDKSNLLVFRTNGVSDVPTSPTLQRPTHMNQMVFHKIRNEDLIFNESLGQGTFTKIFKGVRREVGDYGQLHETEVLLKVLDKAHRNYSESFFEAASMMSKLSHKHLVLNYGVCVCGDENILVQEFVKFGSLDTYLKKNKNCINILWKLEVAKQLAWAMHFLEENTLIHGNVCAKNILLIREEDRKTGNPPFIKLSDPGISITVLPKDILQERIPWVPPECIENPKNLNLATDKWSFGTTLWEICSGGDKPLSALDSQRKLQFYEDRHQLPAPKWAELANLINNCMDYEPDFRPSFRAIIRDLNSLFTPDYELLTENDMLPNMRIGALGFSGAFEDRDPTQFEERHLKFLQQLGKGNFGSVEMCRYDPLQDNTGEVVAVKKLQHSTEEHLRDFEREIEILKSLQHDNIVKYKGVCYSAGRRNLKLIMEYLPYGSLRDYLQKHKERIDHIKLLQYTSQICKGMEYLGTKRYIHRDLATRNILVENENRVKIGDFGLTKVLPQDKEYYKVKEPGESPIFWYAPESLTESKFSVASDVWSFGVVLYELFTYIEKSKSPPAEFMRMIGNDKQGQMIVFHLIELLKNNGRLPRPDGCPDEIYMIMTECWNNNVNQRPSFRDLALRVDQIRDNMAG
Chain of ALK (Q9UM73 19-1620, species assumed): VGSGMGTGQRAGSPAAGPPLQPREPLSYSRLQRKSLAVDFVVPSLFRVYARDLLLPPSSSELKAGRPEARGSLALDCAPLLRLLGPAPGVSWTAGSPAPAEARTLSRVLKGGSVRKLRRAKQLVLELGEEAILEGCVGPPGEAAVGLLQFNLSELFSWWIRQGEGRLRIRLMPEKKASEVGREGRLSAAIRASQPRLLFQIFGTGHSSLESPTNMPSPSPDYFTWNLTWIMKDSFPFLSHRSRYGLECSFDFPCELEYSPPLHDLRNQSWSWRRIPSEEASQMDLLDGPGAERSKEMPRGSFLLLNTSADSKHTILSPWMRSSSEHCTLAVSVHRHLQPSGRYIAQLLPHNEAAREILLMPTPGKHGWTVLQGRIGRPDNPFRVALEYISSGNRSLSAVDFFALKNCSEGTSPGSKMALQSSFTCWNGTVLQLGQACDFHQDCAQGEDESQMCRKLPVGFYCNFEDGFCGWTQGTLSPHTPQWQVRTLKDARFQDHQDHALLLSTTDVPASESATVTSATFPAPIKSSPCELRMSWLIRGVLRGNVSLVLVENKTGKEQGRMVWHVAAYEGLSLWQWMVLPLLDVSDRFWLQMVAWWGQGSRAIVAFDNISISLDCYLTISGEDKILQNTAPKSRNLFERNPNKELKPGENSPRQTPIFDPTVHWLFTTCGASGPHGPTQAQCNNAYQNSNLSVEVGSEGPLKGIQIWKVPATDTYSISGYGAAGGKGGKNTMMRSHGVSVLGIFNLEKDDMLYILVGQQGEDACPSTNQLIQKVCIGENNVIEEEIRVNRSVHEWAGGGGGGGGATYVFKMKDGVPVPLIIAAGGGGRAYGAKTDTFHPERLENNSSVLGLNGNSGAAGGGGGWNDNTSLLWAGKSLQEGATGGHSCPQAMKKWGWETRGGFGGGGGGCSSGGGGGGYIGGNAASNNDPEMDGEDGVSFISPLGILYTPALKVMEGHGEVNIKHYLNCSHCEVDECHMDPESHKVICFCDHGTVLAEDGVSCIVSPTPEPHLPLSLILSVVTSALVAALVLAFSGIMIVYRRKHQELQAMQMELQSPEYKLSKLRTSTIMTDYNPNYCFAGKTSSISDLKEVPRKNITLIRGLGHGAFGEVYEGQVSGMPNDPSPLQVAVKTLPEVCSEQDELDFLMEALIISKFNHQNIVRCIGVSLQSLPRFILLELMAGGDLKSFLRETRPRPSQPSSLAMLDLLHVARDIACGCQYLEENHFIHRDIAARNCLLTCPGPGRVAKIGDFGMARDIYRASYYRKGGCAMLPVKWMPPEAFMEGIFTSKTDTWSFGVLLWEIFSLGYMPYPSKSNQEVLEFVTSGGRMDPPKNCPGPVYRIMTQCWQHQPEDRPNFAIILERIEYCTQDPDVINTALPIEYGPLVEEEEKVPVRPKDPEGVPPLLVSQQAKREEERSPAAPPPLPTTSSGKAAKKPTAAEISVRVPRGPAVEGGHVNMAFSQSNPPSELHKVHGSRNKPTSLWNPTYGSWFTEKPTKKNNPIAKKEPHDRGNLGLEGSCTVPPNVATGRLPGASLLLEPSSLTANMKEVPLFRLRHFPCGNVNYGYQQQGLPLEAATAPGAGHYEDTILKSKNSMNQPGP

SMILES | IC50 (H3122 cells; NCI-H3122) [µM] | IC50 (ALK) [µM] | IC50 (JAK2) [µM] | IC50 (HEL (JAK2 V617F) cells) [µM] | IC50 (SET 2 (JAK2 V617F) cells; SET-2) [µM] | IC50 (H3122 cells; NCI-H3122, 72 h) [µM] | IC50 (HEL (JAK2 V617F) cells; 72 h) [µM] | IC50 (SET 2 (JAK2 V617F) cells; SET-2, 72 h) [µM]
CC(Oc1cc(-c2cnn(C3COC3)c2)cnc1N)c1cc(F)ccc1Cl (stereo not drawn) [MXY-032-51] | 9.91 ± 1.28 | 0.335 | 0.025 ± 0.001 | 4.67 | 31.2 | – | – | –
CC(Oc1cc(-c2cnn(C3CCNCC3)c2)cnc1N)c1c(Cl)ccc(F)c1Cl (stereo not drawn) [WWQ-1093-65, 4-{3-[1-(2,6-dichloro-3-fluorophenyl)ethoxy]-2-aminopyridine}pyrazole-1-piperidine] | – | – | – | – | – | 0.648 ± 0.044 | 11.7 | 1.49
CCOC(C)n1cc(-c2cnc(N)c(OC(C)c3cc(F)ccc3Cl)c2)cn1 (stereo not drawn) [MXY-032-91] | 2.08 ± 0.803 | 5.28 | 0.157 ± 0.031 | 4.56 | 6.34 | – | – | –
CC(Oc1cc(-c2cnn3cccnc23)cnc1N)c1cc(F)ccc1Cl (stereo not drawn) [MXY-181] | 62.5 ± 4.78 | 2.34 | 0.145 ± 0.01 | 49 | > 50 | – | – | –
COCCn1cc(-c2cnc(N)c(OC(C)c3cc(F)ccc3Cl)c2)cn1 (stereo not drawn) [MXY-032-95] | 1.36 ± 0.869 | 2.36 | 0.011 ± 0.001 | 2.34 | 3.9 | – | – | –
Cc1n[nH]cc1-c1cnc(N)c(OC(C)c2cc(F)ccc2Cl)c1 (stereo not drawn) [XFL-147] | 2.1 ± 0.344 | 0.438 | 0.0408 ± 0.0006 | 6.15 | 4.05 | – | – | –
N#CC[C@H](C1CCCC1)n1cc(-c2ncnc3[nH]ccc23)cn1 [Ruxolitinib, reference compound] | 27.2 ± 3.39 | – | – | – | – | – | – | –
COCCCn1cc(-c2cnc(N)c(OC(C)c3cc(F)ccc3Cl)c2)cn1 (stereo not drawn) [MXY-032-93] | 1.98 ± 0.84 | 2.33 | 0.015 ± 0.001 | 3.45 | 2.88 | – | – | –
CC(Oc1cc(Nc2ccc3ccccc3n2)cnc1N)c1cc(F)ccc1Cl (stereo not drawn) [MXY-032-85] | 12 ± 2.32 | > 10 | > 10 | 5.74 | > 50 | – | – | –
CC(Oc1cc(-c2ccn[nH]2)cnc1N)c1cc(F)ccc1Cl (stereo not drawn) [XFL-141] | 78.6 ± 3 | – | 0.3021 ± 0.003 | 5.41 | 2.48 | – | – | –
CC(Oc1cc(-c2cnn(C3CCOC3)c2)cnc1N)c1cc(F)ccc1Cl (stereo not drawn) [MXY-032-53] | 6.34 ± 1.91 | 1.24 | 0.027 ± 0.001 | 4.54 | 44.1 | – | – | –
CC(Oc1cc(-c2cnoc2)cnc1N)c1cc(F)ccc1Cl (stereo not drawn) [XFL-137] | > 100 | > 10 | > 10 | > 50 | > 10 | – | – | –
CC(Oc1cc(-c2cncnc2)cnc1N)c1cc(F)ccc1Cl (stereo not drawn) [MXY-032-45] | > 100 | 3.67 | 0.566 ± 0.029 | > 10 | > 10 | – | – | –
CC(Oc1cc(-c2cnn3ccccc23)cnc1N)c1cc(F)ccc1Cl (stereo not drawn) [MXY-97] | 3.3 ± 0.05 | 1.23 | 0.061 ± 0.007 | 1.85 | 4.51 | – | – | –
CC(Oc1cc(-c2cn(C)c3ccccc23)cnc1N)c1cc(F)ccc1Cl (stereo not drawn) [MXY-89] | 6.874 ± 0.022 | 7.89 | 0.695 ± 0.002 | 2.44 | 11 | – | – | –
Cc1cc(Nc2cnc(N)c(OC(C)c3cc(F)ccc3Cl)c2)nn1C (stereo not drawn) [MXY-191] | > 100 | > 10 | 2.68 ± 0.05 | 23.1 | > 50 | – | – | –
Cc1n[nH]c(C)c1-c1cnc(N)c(OC(C)c2cc(F)ccc2Cl)c1 (stereo not drawn) [XFL-107] | 1.45 ± 0.118 | 3.37 | 0.844 ± 0.1 | 9.14 | 3.35 | – | – | –
